From ChEMBL document CHEMBL1641379, “PEGylated derivatives of cystamine as enhanced treatments for nephropathic cystinosis” (Bioorg Med Chem Lett, 2011)
The source made the active and inactive calls. The rule behind the calls is not given here.

Assays:
Fibroblast = test: Antinephropathic cystinosis activity in human cystinotic fibroblast assessed as decrease in cystine level at 50 uM after 24 hrs by Bradford reagent method; type: functional, cell-based
[1] = Cytotoxicity against human cystinotic fibroblast at 50 uM after 72 hrs by alamar blue assay; type: cell-based

SMILES: COCCOCCOCCOCCNC(=O)CCCC(=O)NCCSSCCNC(=O)CCCC(=O)NCCOCCOCCOCCOC
- inhibition (Fibroblast): Active

SMILES: COCCOCCOCCOCCNC(=O)CCC(=O)NCCSSCCNC(=O)CCC(=O)NCCOCCOCCOCCOC
- inhibition (Fibroblast): Active
- Activity [1]: Non-toxic

SMILES: COCCOCCOCCNC(=O)CCC(=O)NCCSSCCNC(=O)CCC(=O)NCCOCCOCCOC
- inhibition (Fibroblast): Active
- Activity [1]: Non-toxic

SMILES: COCCOCCOCCNC(=O)CCCC(=O)NCCSSCCNC(=O)CCCC(=O)NCCOCCOCCOC
- inhibition (Fibroblast): Active
- Activity [1]: Non-toxic

SMILES: NCCS [CYSTEAMINE]
- inhibition (Fibroblast): Active
- Activity [1]: Non-toxic
